Laboratory results from patent US9993494B2, “Compositions and methods for treating fibrotic disease” (eFFECTOR Therapeutics, Inc., priority 2014, dated 2018).

Test system: normal human lung fibroblasts
Test: Ribosomal profiling: translational efficiency in TGFβ-treated fibroblasts
Assay type: cell-based
Procedure, shortened: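 Genome-wide RPF and total RNA libraries (ARTseq, RNA-Seq) were made from lysates of cycloheximide-treated, PBS-washed cells. After trimming and human-genome mapping, per-gene coding-region counts were compared between RPF and RNA for translational efficiency. Genes scoring low in either fraction were dropped.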

TGFβ
Log2 TE FANCL (ENSG00000115392, 5 replicates): −1.233
Log2 TE IL1R1 (ENSG00000115594, 5 replicates): −1.003
Log2 TE PIK3R3 (ENSG00000117461, 5 replicates): −1.0571
Log2 TE DPH5 (ENSG00000117543, 5 replicates): 1.114
change in translational profile of DPH5 caused by TGFβ (ENSG00000117543, Control vs. TGFβ): D (D = <1.0 to 1.5)
Log2 TE CENPF (ENSG00000117724, 5 replicates): −1.237
Log2 TE RPS25 (ENSG00000118181, 5 replicates): 1.697
Log2 TE SGIP1 (ENSG00000118473, 5 replicates): −2.768
Log2 TE PPL (ENSG00000118898, 5 replicates): −1.54
change in translational profile of PPL caused by TGFβ (ENSG00000118898, Control vs. TGFβ): B (B = <−1.5 to −2.5)
Log2 TE NR4A3 (ENSG00000119508, 5 replicates): −1.931
Log2 TE TEK (ENSG00000120156, 5 replicates): −1.652
change in translational profile of PLEKHG1 caused by TGFβ (ENSG00000120278, Control vs. TGFβ): B (B = <−1.5 to −2.5)
change in translational profile of LIAS caused by TGFβ (ENSG00000121897, Control vs. TGFβ): D (D = <1.0 to 1.5)
Log2 TE GPSM2 (ENSG00000121957, 5 replicates): −1.408
change in translational profile of GPSM2 caused by TGFβ (ENSG00000121957, Control vs. TGFβ): B (B = <−1.5 to −2.5)
change in translational profile of RPL21 caused by TGFβ (ENSG00000122026, Control vs. TGFβ): E (E = <1.5 to 2.5)
Log2 TE RPL5 (ENSG00000122406, 5 replicates): 1.593
change in translational profile of RPL5 caused by TGFβ (ENSG00000122406, Control vs. TGFβ): E (E = <1.5 to 2.5)
change in translational profile of INHBA caused by TGFβ (ENSG00000122641, Control vs. TGFβ): D (D = <1.0 to 1.5)
Log2 TE CIT (ENSG00000122966, 5 replicates): −3.084
change in translational profile of CIT caused by TGFβ (ENSG00000122966, Control vs. TGFβ): A (A = <−2.5)
Log2 TE ATP8A1 (ENSG00000124406, 5 replicates): −2.122
Log2 TE TRERF1 (ENSG00000124496, 5 replicates): −1.891
Log2 TE RPS10 (ENSG00000124614, 5 replicates): 1.211
Log2 TE COL21A1 (ENSG00000124749, 5 replicates): −1.445
Log2 TE ATP5S (ENSG00000125375, 5 replicates): 1.075
Log2 TE RPL23 (ENSG00000125691, 5 replicates): 1.604
change in translational profile of RPL23 caused by TGFβ (ENSG00000125691, Control vs. TGFβ): E (E = <1.5 to 2.5)
Log2 TE RTN2 (ENSG00000125744, 5 replicates): −1.143
Log2 TE LAMP5 (ENSG00000125869, 5 replicates): 1.298
change in translational profile of LAMP5 caused by TGFβ (ENSG00000125869, Control vs. TGFβ): E (E = <1.5 to 2.5)
Log2 TE NECAB3 (ENSG00000125967, 5 replicates): 1.403
change in translational profile of NECAB3 caused by TGFβ (ENSG00000125967, Control vs. TGFβ): E (E = <1.5 to 2.5)
change in translational profile of COX7C caused by TGFβ (ENSG00000127184, Control vs. TGFβ): D (D = <1.0 to 1.5)
Log2 TE TNFRSF19 (ENSG00000127863, 5 replicates): −1.093
Log2 TE ZFP36 (ENSG00000128016, 5 replicates): 1.188
change in translational profile of LIF caused by TGFβ (ENSG00000128342, Control vs. TGFβ): D (D = <1.0 to 1.5)
Log2 TE APOBEC3F (ENSG00000128394, 5 replicates): −1.127
Log2 TE SMO (ENSG00000128602, 5 replicates): −1.254
Log2 TE CGNL1 (ENSG00000128849, 5 replicates): −1.023
Log2 TE CD68 (ENSG00000129226, 5 replicates): 1.048
Log2 TE MTUS1 (ENSG00000129422, 5 replicates): −1.149
change in translational profile of MTUS1 caused by TGFβ (ENSG00000129422, Control vs. TGFβ): B (B = <−1.5 to −2.5)
Log2 TE ARHGEF6 (ENSG00000129675, 5 replicates): −1.1
change in translational profile of ARHGEF6 caused by TGFβ (ENSG00000129675, Control vs. TGFβ): C (C = <−1.0 to −1.5)
Log2 TE RPL36 (ENSG00000130255, 5 replicates): 1.411
change in translational profile of RPL36 caused by TGFβ (ENSG00000130255, Control vs. TGFβ): E (E = <1.5 to 2.5)
change in translational profile of GDF15 caused by TGFβ (ENSG00000130513, Control vs. TGFβ): D (D = <1.0 to 1.5)
change in translational profile of ASS1 caused by TGFβ (ENSG00000130707, Control vs. TGFβ): D (D = <1.0 to 1.5)
Log2 TE EIF2S3 (ENSG00000130741, 5 replicates): 1.067
change in translational profile of EIF2S3 caused by TGFβ (ENSG00000130741, Control vs. TGFβ): D (D = <1.0 to 1.5)
Log2 TE RPL27 (ENSG00000131469, 5 replicates): 1.519
change in translational profile of RPL27 caused by TGFβ (ENSG00000131469, Control vs. TGFβ): E (E = <1.5 to 2.5)
Log2 TE TOP2A (ENSG00000131747, 5 replicates): −1.314
Log2 TE MATN3 (ENSG00000132031, 5 replicates): 1.34
change in translational profile of MATN3 caused by TGFβ (ENSG00000132031, Control vs. TGFβ): D (D = <1.0 to 1.5)
Log2 TE SPATA6 (ENSG00000132122, 5 replicates): −1.925
Log2 TE PPARG (ENSG00000132170, 5 replicates): −3.52
change in translational profile of PPARG caused by TGFβ (ENSG00000132170, Control vs. TGFβ): A (A = <−2.5)
Log2 TE KDM6B (ENSG00000132510, 5 replicates): 1.603
change in translational profile of KDM6B caused by TGFβ (ENSG00000132510, Control vs. TGFβ): E (E = <1.5 to 2.5)
Log2 TE RARRES3 (ENSG00000133321, 5 replicates): −1.995
change in translational profile of RARRES3 caused by TGFβ (ENSG00000133321, Control vs. TGFβ): B (B = <−1.5 to −2.5)
Log2 TE TMTC1 (ENSG00000133687, 5 replicates): −1.907
Log2 TE RPS15A (ENSG00000134419, 5 replicates): 2.195
Log2 TE SOX5 (ENSG00000134532, 5 replicates): −1.667
change in translational profile of BIVM caused by TGFβ (ENSG00000134897, Control vs. TGFβ): B (B = <−1.5 to −2.5)
Log2 TE ATP5G2 (ENSG00000135390, 5 replicates): 1.381
change in translational profile of ATP5G2 caused by TGFβ (ENSG00000135390, Control vs. TGFβ): E (E = <1.5 to 2.5)
Log2 TE KRT7 (ENSG00000135480, 5 replicates): 2
change in translational profile of KRT7 caused by TGFβ (ENSG00000135480, Control vs. TGFβ): E (E = <1.5 to 2.5)
Log2 TE HNRNPA1 (ENSG00000135486, 5 replicates): 1.086
change in translational profile of HNRNPA1 caused by TGFβ (ENSG00000135486, Control vs. TGFβ): D (D = <1.0 to 1.5)
Log2 TE PCNXL2 (ENSG00000135749, 5 replicates): −1.261
Log2 TE PLXNC1 (ENSG00000136040, 5 replicates): −1.0996
Log2 TE IL6 (ENSG00000136244, 5 replicates): 1.369
change in translational profile of IL6 caused by TGFβ (ENSG00000136244, Control vs. TGFβ): E (E = <1.5 to 2.5)
Log2 TE RPL35 (ENSG00000136942, 5 replicates): 1.28
change in translational profile of RPL35 caused by TGFβ (ENSG00000136942, Control vs. TGFβ): E (E = <1.5 to 2.5)
change in translational profile of NOV caused by TGFβ (ENSG00000136999, Control vs. TGFβ): C (C = <−1.0 to −1.5)
Log2 TE IL33 (ENSG00000137033, 5 replicates): −2.488
Log2 TE RPS6 (ENSG00000137154, 5 replicates): 1.598
Log2 TE IER3 (ENSG00000137331, 5 replicates): 1.702
change in translational profile of IER3 caused by TGFβ (ENSG00000137331, Control vs. TGFβ): E (E = <1.5 to 2.5)
Log2 TE DDX60 (ENSG00000137628, 5 replicates): −1.211
change in translational profile of DDX60 caused by TGFβ (ENSG00000137628, Control vs. TGFβ): C (C = <−1.0 to −1.5)
Log2 TE RPLP1 (ENSG00000137818, 5 replicates): 1.461
change in translational profile of RPLP1 caused by TGFβ (ENSG00000137818, Control vs. TGFβ): E (E = <1.5 to 2.5)
Log2 TE PAQR5 (ENSG00000137819, 5 replicates): −1.445
change in translational profile of PAQR5 caused by TGFβ (ENSG00000137819, Control vs. TGFβ): B (B = <−1.5 to −2.5)
Log2 TE STAMBPL1 (ENSG00000138134, 5 replicates): −1.139
Log2 TE KIF20B (ENSG00000138182, 5 replicates): −1.281
Log2 TE RPS24 (ENSG00000138326, 5 replicates): 1.444
Log2 TE TET1 (ENSG00000138336, 5 replicates): 1.853
Log2 TE AOX1 (ENSG00000138356, 5 replicates): −1.143
change in translational profile of AOX1 caused by TGFβ (ENSG00000138356, Control vs. TGFβ): B (B = <−1.5 to −2.5)
Log2 TE NAB1 (ENSG00000138386, 5 replicates): −1.01
Log2 TE SLC40A1 (ENSG00000138449, 5 replicates): 1.114
Log2 TE FGF5 (ENSG00000138675, 5 replicates): −1.163
change in translational profile of FGF5 caused by TGFβ (ENSG00000138675, Control vs. TGFβ): B (B = <−1.5 to −2.5)
Log2 TE PDE5A (ENSG00000138735, 5 replicates): −1.594
change in translational profile of PDE5A caused by TGFβ (ENSG00000138735, Control vs. TGFβ): B (B = <−1.5 to −2.5)
Log2 TE FGD4 (ENSG00000139132, 5 replicates): −1.142
Log2 TE SLC38A4 (ENSG00000139209, 5 replicates): −1.142
Log2 TE GAS2L3 (ENSG00000139354, 5 replicates): −2.342
change in translational profile of GAS2L3 caused by TGFβ (ENSG00000139354, Control vs. TGFβ): A (A = <−2.5)
Log2 TE TDG (ENSG00000139372, 5 replicates): 1.025
Log2 TE DIAPH3 (ENSG00000139734, 5 replicates): 1.659
change in translational profile of DIAPH3 caused by TGFβ (ENSG00000139734, Control vs. TGFβ): E (E = <1.5 to 2.5)
Log2 TE RPS2 (ENSG00000140988, 5 replicates): 1.607
change in translational profile of MYO19 caused by TGFβ (ENSG00000141140, Control vs. TGFβ): D (D = <1.0 to 1.5)
Log2 TE CACNA1A (ENSG00000141837, 5 replicates): −1.055
Log2 TE RPS11 (ENSG00000142534, 5 replicates): 1.314
Log2 TE RPL13A (ENSG00000142541, 5 replicates): 1.797
change in translational profile of RPL13A caused by TGFβ (ENSG00000142541, Control vs. TGFβ): E (E = <1.5 to 2.5)
Log2 TE RPL11 (ENSG00000142676, 5 replicates): 1.396
change in translational profile of RPL11 caused by TGFβ (ENSG00000142676, Control vs. TGFβ): E (E = <1.5 to 2.5)
